Test results from PMC10748408 (Frontiers in Oncology, 2023).

System: normal mice
Assay: Hematological parameters of normal mice treated with ART
Type: in vivo, BALB/c mice
Protocol: Blood was drawn for hematological estimations by thoracotomy and collected in heparinized vials. Blood was diluted using RBC diluting fluid (1: 1000) and WBC diluting fluid (1:100), and RBCs and WBCs were counted using a Neubauer counting chamber. Differential count was performed on blood smear stained with Leishman stain and observed under a microscope at 40X magnification (Dewinter Optical Inc., India). The percentage of lymphocytes, neutrophils, monocytes, eosinophils and basophils were recorded according to their nuclear structure ([27]). Hemoglobin content was estimated using Drabkin’s solution (1g sodium bicarbonate, 0.05g potassium cyanide and 0.2g potassium ferricyanide per liter), which lysed RBCs to convert hemoglobin to cyanmethemoglobin. Finally, the hemoglobin content of the test and the standard samples were obtained in gm/dl by recording the O.D. at 540 nm, and using the formula: O.D of test/O.D of standard x concentration of standard ([28]).

C[C@@H]1CC[C@H]2[C@@H](C)C(=O)O[C@@H]3O[C@@]4(C)CC[C@@H]1[C@]32OO4 [ART, Artemisinin]
Differential Count % B (Basophils) (ART 6.25 mg/kg body wt): 0%
Differential Count % E (Eosinophils) (ART 6.25 mg/kg body wt): 0%
Differential Count % L (Lymphocytes) (ART 6.25 mg/kg body wt): 67± 4.1%
Differential Count % M (Monocytes) (ART 6.25 mg/kg body wt): 0%
Differential Count % N (Neutrophils) (ART 6.25 mg/kg body wt): 33± 3.1%
Hb (ART 6.25 mg/kg body wt): 13.1 ± 0.45 g/dL
Total RBC (ART 6.25 mg/kg body wt): 8.1± 0.62 10^6cells/mm^3
Differential Count % B (Basophils) (ART 12.5 mg/kg body wt): 0%
Differential Count % E (Eosinophils) (ART 12.5 mg/kg body wt): 0%
Differential Count % L (Lymphocytes) (ART 12.5 mg/kg body wt): 72± 1.7%
Differential Count % M (Monocytes) (ART 12.5 mg/kg body wt): 0%
Differential Count % N (Neutrophils) (ART 12.5 mg/kg body wt): 28± 3.5%
Hb (ART 12.5 mg/kg body wt): 14.1 ± 0.47 g/dL
Total RBC (ART 12.5 mg/kg body wt): 7.8± 0.38 10^6cells/mm^3
Total WBC (ART 12.5 mg/kg body wt): 8.3± 1.8 10^3 cells/mm^3
Differential Count % B (Basophils) (ART 25 mg/kg body wt): 0%
Differential Count % E (Eosinophils) (ART 25 mg/kg body wt): 0%
Differential Count % L (Lymphocytes) (ART 25 mg/kg body wt): 74± 3.4%
Differential Count % M (Monocytes) (ART 25 mg/kg body wt): 0%
Differential Count % N (Neutrophils) (ART 25 mg/kg body wt): 26± 2.3%
Hb (ART 25 mg/kg body wt): 14.7 ± 0.39 g/dL
Total RBC (ART 25 mg/kg body wt): 8.2± 0.34 10^6cells/mm^3
Total WBC (ART 25 mg/kg body wt): 8.75± 2.6 10^3 cells/mm^3
Differential Count % B (Basophils) (ART 50 mg/kg body wt): 0%
Differential Count % E (Eosinophils) (ART 50 mg/kg body wt): 0%
Differential Count % L (Lymphocytes) (ART 50 mg/kg body wt): 70± 2.2%
Differential Count % M (Monocytes) (ART 50 mg/kg body wt): 1%
Differential Count % N (Neutrophils) (ART 50 mg/kg body wt): 29 ± 3.2%
Hb (ART 50 mg/kg body wt): 13.8 ± 0.41 g/dL
Total RBC (ART 50 mg/kg body wt): 8.1± 0.41 10^6cells/mm^3
Total WBC (ART 50 mg/kg body wt): 8.3± 1.44 10^3 cells/mm^3
